According to ChEMBL document CHEMBL5316297, “Mechanistic Insight of Synthesized 1,4-Dihydropyridines as an Antidiabetic Sword against Reactive Oxygen Species” (J Med Chem, 2023):

Assays:
INS1 = assay: Induction of apoptosis in rat INS1 cells assessed as early apoptotic cells at 1 uM incubated for 36 hrs by Annexin V-FITC/ propidium iodide staining based flow cytometry analysis (reference value: 0.34%); type: functional
[1] = Toxicity in high fat diet-STZ-induced diabetic Swiss albino mouse model assessed as changes in body weight at 0.2 mmol/Kg/day, po administered for 14 days (reference value: 26.6 to 27.8 g); type: organism-based; conditions: in vivo, 336 h, time 14 day
Mus musculus [2] = assay: Antidiabetic activity against high fat diet-STZ-induced diabetic Swiss albino mouse model assessed as serum insulin level at 0.2 mmol/Kg/day, po administered for 14 days by ELISA method (reference value: 16.37 +/- 0.62 uU/ml); type: functional; conditions: time 14 day
Mus musculus [3] = assay: Antioxidant activity against high fat diet-STZ-induced diabetic Swiss albino mouse model assessed as serum catalase level at 0.2 mmol/Kg/day, po administered for 14 days (reference value: 378.22+/- 14.45 U/ml); type: functional; conditions: time 14 day
Mus musculus [4] = assay: Antioxidant activity against high fat diet-STZ-induced diabetic Swiss albino mouse model assessed as serum MDA level at 0.2 mmol/Kg/day, po administered for 14 days (reference value: 8.70+/- 0.09 nmol/ml); type: functional; conditions: time 14 day
Alpha glucosidase = Alpha glucosidase (Homo sapiens, UniProt O43451+P10253+P14410+Q2M2H8); assay: Inhibition of alpha glucosidase (unknown origin) measured after 60 mins; type: protein assay
[5] = target: Alpha amylase (Homo sapiens) (UniProt P0DUB6); assay: Inhibition of alpha amylase (unknown origin) measured after 20 to 25 mins relative to quercetin; conditions: time 20-25 min
Alpha amylase (Homo sapiens), sequence (P0DUB6 whole entry, looked up): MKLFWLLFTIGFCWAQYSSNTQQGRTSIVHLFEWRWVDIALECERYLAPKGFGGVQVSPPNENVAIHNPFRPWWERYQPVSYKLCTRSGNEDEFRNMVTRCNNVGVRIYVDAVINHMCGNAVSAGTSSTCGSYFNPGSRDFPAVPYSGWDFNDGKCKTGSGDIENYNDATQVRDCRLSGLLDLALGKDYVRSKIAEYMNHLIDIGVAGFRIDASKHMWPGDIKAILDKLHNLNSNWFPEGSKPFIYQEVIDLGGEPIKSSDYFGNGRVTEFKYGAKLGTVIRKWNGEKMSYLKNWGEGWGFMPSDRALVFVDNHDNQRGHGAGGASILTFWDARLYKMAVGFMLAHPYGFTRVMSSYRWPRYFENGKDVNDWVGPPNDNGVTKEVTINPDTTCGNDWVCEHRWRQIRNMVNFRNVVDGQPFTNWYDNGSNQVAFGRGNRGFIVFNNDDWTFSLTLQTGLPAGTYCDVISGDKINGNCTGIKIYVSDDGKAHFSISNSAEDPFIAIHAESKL

[6] = target: T1, Sodium/glucose cotransporter 2 (Homo sapiens) (UniProt P31639); assay: Inhibition of human SGLT2 by liquid scintillation counter analysis relative to canagliflozin; conditions: concentration not given here
T1 sequence (whole entry): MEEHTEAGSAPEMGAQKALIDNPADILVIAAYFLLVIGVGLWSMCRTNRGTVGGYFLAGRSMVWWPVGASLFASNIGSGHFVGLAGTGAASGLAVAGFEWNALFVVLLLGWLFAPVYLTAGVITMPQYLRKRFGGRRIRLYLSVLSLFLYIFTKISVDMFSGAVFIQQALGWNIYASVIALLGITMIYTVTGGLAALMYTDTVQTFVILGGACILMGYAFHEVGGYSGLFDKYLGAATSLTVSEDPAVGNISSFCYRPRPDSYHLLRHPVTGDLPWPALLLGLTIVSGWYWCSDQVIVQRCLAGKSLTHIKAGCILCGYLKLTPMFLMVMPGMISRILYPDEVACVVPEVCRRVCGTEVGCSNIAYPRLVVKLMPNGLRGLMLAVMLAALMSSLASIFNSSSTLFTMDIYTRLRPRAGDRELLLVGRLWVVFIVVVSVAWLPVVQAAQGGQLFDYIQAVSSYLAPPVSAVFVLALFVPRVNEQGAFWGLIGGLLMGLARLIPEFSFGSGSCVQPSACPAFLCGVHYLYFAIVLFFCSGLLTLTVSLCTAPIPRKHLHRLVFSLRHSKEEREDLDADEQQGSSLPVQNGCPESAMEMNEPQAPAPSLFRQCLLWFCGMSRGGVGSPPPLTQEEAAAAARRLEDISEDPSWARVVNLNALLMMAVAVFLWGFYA

[7] = Cmax in Swiss albino mouse plasma at 0.2 mmol/Kg, po measured after 24 hrs by HPLC analysis; type: ADME, organism-based; parameters: time 24 hrs, dose 0.2 mmol/Kg, route po
[8] = Tmax in Swiss albino mouse plasma at 0.2 mmol/Kg, po measured after 24 hrs by HPLC analysis; type: ADME, organism-based
[9] = target: voltage dependent L-type calcium channel (Rattus norvegicus, UniProt P22002+P27732+Q02485); assay: Inhibition of voltage dependent L-type calcium channel in rat A7R5 cells
[10] = tested on: voltage dependent L/T-type calcium channel; assay: Inhibition of voltage dependent L/T-type calcium channel in human SH-SY5Y cells; conditions: SH-SY5Y cells
[11] = Cytotoxicity against human MCF-10F cells assessed as cell growth inhibition; type: toxicity, cell-based
[12] = Cytotoxicity against human THLE-2 cells assessed as cell growth inhibition; type: toxicity, cell-based
[13] = Cytotoxicity against human THLE-2 cells assessed as cell growth inhibition at 10 uM relative to control; type: toxicity, cell-based; conditions: read-out: GI
[14] = Cytotoxicity against human BJ cells assessed as cell growth inhibition at 10 uM relative to control; type: toxicity, cell-based; conditions: read-out: GI
[15] = Cytotoxicity against human HCN-1A cells assessed as cell growth inhibition; type: toxicity, cell-based
[16] = Cytotoxicity against human HCN-1A cells assessed as cell growth inhibition at 10 uM relative to control; type: toxicity, cell-based; conditions: read-out: GI
[17] = Cytotoxicity against HEK293 cells assessed as cell growth inhibition at 10 uM relative to control; type: toxicity, cell-based; conditions: human, read-out: GI
[18] = Cytotoxicity against human WPE1-NA22 cells assessed as cell growth inhibition; type: toxicity, cell-based
[19] = Cytotoxicity against human WPE1-NA22 cells assessed as cell growth inhibition at 10 uM relative to control; type: toxicity, cell-based; conditions: read-out: GI
[20] = Acute toxicity in Swiss albino mouse assessed as effect on mortality up to 2000 mg/kg, po administered for 14 days; type: organism-based; conditions: in vivo, 336 h, time 14 day
[21] = Acute toxicity in Swiss albino mouse assessed as effect on behavioural change up to 2000 mg/kg, po administered for 14 days; type: organism-based; conditions: in vivo, 336 h, time 14 day
[22] = Acute toxicity in Swiss albino mouse assessed as toxic symptoms up to 2000 mg/kg, po administered for 14 days; type: organism-based; conditions: in vivo, 336 h, time 14 day

CCOC(=O)C1=C(C)NC(C)=C(C(=O)OCC)C1c1cccc2c1OCO2
Activity (INS1): 0.27%
Activity [1]: 26.9 g
Activity (Mus musculus [2]): 16.31 uU/ml
Activity (Mus musculus [3]): 271.11 U/ml
Activity (Mus musculus [4]): 8.61 nmol/mL
IC50 (Alpha glucosidase): 4.48 µM
inhibition [5]: 47%
inhibition [6]: < 1%
Cmax [7]: 10.1 µM
Tmax [8]: 48 min
IC50 [9]: 12.6 µM
IC50 [10]: 16.5 µM
GI50 [11]: 171 µM
GI50 [12]: 67.8 µM
inhibition at 10 µM [13]: 18.3%
inhibition at 10 µM [14]: 34.5%
GI50 [15]: 28.7 µM
inhibition at 10 µM [16]: 33.1%
inhibition at 10 µM [17]: 41.3%
GI50 [18]: 24.9 µM
inhibition at 10 µM [19]: 26.4%
Activity [20]: Non-Toxic
Activity [21]: Non-Toxic
Activity [22]: Non-Toxic
